Source: US20060121607A1, “Compositions and methods for neural differentiation of embryonic stem cells” (priority 2002, published 2006)

Legend:
human ES cells = assay: Comparison of basic media for TH+ cell formation in human embryoid bodies; assay type: cell-based; conditions: DMEM and 100 μM L-proline, absence of FGF2
Protocol: Embryoid bodies/neurospheres from human ES cells were grown without the use of MEDII conditioned media Media and supplements used were Hams DMEM/F12 (Gibco Cat # 11320-033), ITSS (Gibco Cat#17502-048) and N2 (Gibco Cat#41400-045).
The ability of basic media with supplements (DMEM+N2 or ITSS) to promote neural differentiation of hES cells was compared with medium that included F12: (DMEM:F12 (1:1)+N2 or ITSS).
Trypsinised Human ES cells were seeded at approximately 10 to 20 cells/μl of media into 10 ml of neurosphere media (DMEM:F12, 10 μg/ml heparin (SIGMA), 1/50 B27 (GIBCO), 1/100 pen/strep, 1/100 ITSS) in a T75 culture flask. 10 ng/ml FGF2 was optionally added but the culture medium was preferably mitogen-free (no FGF2). Cultures were maintained in the media for 9 days after which the embryoid bodies were optionally transferred to poly-L-ornithine/laminin plates and cultured in the same media for a further 6 days. The embryoid bodies so formed (EB^15), whether from adherent or suspension culture, were then triturated to near single cell form and used for either transplantation or for the formation of neurospheres/cell reaggregates.
Example 15 was repeated utilising human ES cells and a minimal media consisting of DMEM and 100 μM L-proline. The results were similar to those described in Example 5. […]

SSEA4 selected HESCs = conditions: 50 μM Proline, around 3 weeks suspension
Excerpt: Essentially serum free embryoid bodies were generated from bulk passaged monolayer HESC colonies as described in Example 5, in the presence of the media set out below.

[1] = test system: sfEBM single cell suspension; assay: Clonal derivation of colonies from dispersed sfEBM in suspension; assay type: cell-based, human; conditions: medium containing the factor alone
Protocol: sfEBMs were transferred to tissue culture dishes (4-well or 35 mm) and were rinsed with Ca^2+/Mg^2+ free PBS. After settling, the PBS was aspirated and 1 or 2 ml of 0.25% trypsin was added. sfEBMs were dispersed to a single cell suspension, with occasional doublets or triplets, by gentle trituration using a 1 ml pipette. The cell suspension was transferred to a 15 ml tube, diluted with 9 or 18 ml of medium and pelleted by centrifugation. The pellet was resuspended in DMEM/F12 supplemented with 1×N2 supplement, FGF-2 (4 ng/ml), 50% MEDII and added to agarose coated suspension dishes at low density (0.5-5 cells/μl). These cultures were not disturbed for 4-5 days, when small uniform colonies could be observed. Colonies could be harvested at approximately 10 days.
In an attempt to derive clones of essentially serum free embryoid bodies, trypsin was used to generate single cell suspensions from sfEBM cultures and low density cell suspensions, from 0-0.5-5 cells/μl, were incubated in suspension dishes. […] The synergistic activities of FGF2 and MEDII in the derivation of clonal sfEBMs was unexpected. […] The colonies produced were presumed to be clonal, and proliferated to as much as 0.2 mm in diameter within 10 days. The cloning efficiency was in the order of 4.5-6%.

O=C(O)[C@@H]1CCCN1 [L-proline]
TH+ cells in EB^17 bodies (human ES cells): ~50%
appearance of sfEBPs with low cell death and distinct neural rosette structures (SSEA4 selected HESCs): noticeably enhanced

FGF-2: fibroblast growth factor FGF-2
generation of clonal colonies [1]: No clonal colonies
